These results are taken from paper PMC9102668, “Highly Cytotoxic Osmium(II) Compounds and Their Ruthenium(II) Analogues Targeting Ovarian Carcinoma Cell Lines and Evading Cisplatin Resistance Mechanisms” (International Journal of Molecular Sciences, 2022).

In one series the test system is A2780 cells. Put plainly: Cell death rate, PI staining of live cells (FACS). The series is classed as cell-based. Particulars: A2780 and SKOV3 cells, 20 µM and 30 µM, 48 h. How it is done: For cell death rate analysis, live cells were stained with PI immediately after 48 h treatment. […] Furthermore, resistant cells show much lower Cisplatin-induced cell death rates (Figure 7). […] In A2780 cells, both compounds trigger similar cell death rates in parental and Cisplatin-resistant cells. Cisplatin-resistant SKOV3 are much more sensitive to both ruthenium(II) complexes than the parental counterpart, with a median of 3.3-fold higher sensitivity.
(§1) To examine cell cycle distribution and cell death rates, 30,000 cells were seeded in 12 well plates. After attaching for 24 h cells were treated with Cisplatin, Ru3 and Ru14 for 48 h at various concentrations for cell cycle and cell death analyses. For cell death analysis, immediately after treatment cells were stained with Propidium Iodid (PI) (1 µg/mL) on ice and the number of dead cells was measured using BD Canto II. For cell cycle distribution, cells recovered for 24 h after treatment. Afterwards, cells were fixed in ice-cold, 50% EtOH for 24 h at −20 °C. For DNA staining, fixed cells were incubated in PBS with 0.05% Triton-X, 0.1 µg/mL RNaseA and 50 µg/mL PI for 1 h at 4 °C in dark. DNA content was measured using BD Canto II.

Series [1] relates to Cisplatin resistant cell lines. Briefly: Mean IC50 (MTT assay) on Cisplatin resistant cell lines. Format: cell-based. Here is the method: Thus, it can be concluded that the biological activity is mediated by a longer chain (butoxy) at the meta-position, whereas the ortho- and para-positions are more suitable with a shorter chain (ethoxy). To have a further look at the influence of the different ligand systems and substitution patterns, all β-Hydroxydithiocinnamic acid alkyl esters were tested under same conditions as their derived ruthenium(II) complexes (Figure 5B, Supplementary Table S3). […] All ligands are less cytotoxic than Cisplatin itself and therefore the metal(II) center is necessary for the high cytotoxic activity, what is in clear contrast to the literature for O,S-chelating ruthenium(II) or osmium(II) compounds with thiomaltol ligand [48, 71] but confirmed for Ru(II)/Os(II) compounds with N,N-bidentate glycosyl heterocyclic ligands. This is exemplarily shown by the comparison of mean IC50 values for Cisplatin, L14, and Ru14 (Supplementary Figure S8).
(§2) Ovarian cancer cell lines were cultured under standard conditions (5% CO2, 37 °C, 90% humidity) in RPMI medium supplemented with 10% FCS, 100 U/mL penicillin and 100 µg/mL streptomycin (Life Technologies, Dreieich, Germany). Cisplatin (Sigma, Taufkirchen, Germany) was freshly dissolved at 1 mg/mL in 0.9% NaCl solution and diluted appropriately. New ruthenium(II) complexes and ligands were dissolved in dmso. Platinum-resistant A2780 and SKOV3 cells were established by repeated rounds of 3-day incubations with increasing amounts of Cisplatin starting with 0.1 µM. The concentration was doubled after 3 incubations, interrupted by recovery phases with normal medium. […] Determinations of IC50 values were carried out using the CellTiter96 non-radioactive proliferation assay (MTT assay, Promega, Mannheim, Germany). After seeding 5000 cells per well in a 96-well plate, cells were allowed to attach for 24 h and were incubated for 48 h with different concentrations of the substances ranging from 0 to 500 µM for Ruthenium and 0 to 1000 µM for ligand tests (0, 1, 10, 50, 100, 500, 1000 µm), for Cisplatin from 0 to 100 µM (0.1, 1, 5, 10, 50, 100 µM). Each measurement was done in triplicate and repeated 3 times. The proportion of viable cells was quantified by the MTT assay and after background subtraction relative values compared to the mean of medium controls were calculated. Non-linear regression analyses applying the Hill slope were run in GraphPad 5.0 software.
(Tetrazolium assays rely on reduction of a dye to a coloured formazan, in cell work by metabolically active cells.)

In a further series the test system is A2780cis. Put plainly: MTT assay (CellTiter96), cytotoxic activity. Particulars: for RF A2780 (resistance factor): A2780cis vs A2780; for IC50: Cisplatin resistant A2780, MTT assay, 48 h incubation. Format: cell-based. Here is the method: (§3) The biological behaviour of all substances was characterized by their cytotoxic activity against a panel of cell lines enabling an understanding of the structure-activity relationship. Cytotoxic activity was determined on ovarian carcinoma cell lines SKOV3 and A2780 as well as their Cisplatin resistant analogues (SKOV3cis and A2780cis) and the lung carcinoma cell line A549. Due to a low solubility in water, dmso is used as a solvent for the preparation of a dilution series in cell culture experiments. The toxic influence of dmso was determined earlier and experiments were carried out with 0.5% dmso in cell culture media and this concentration was used as reference sample in each MTT assay (details: Section 3). […] Resistance factors (RF) were determined for all substances (for IC50 values and RF of β-Hydroxydithiocinnamic acid esters L1–L18, see Tables S2 and S3, Supplementary part). All investigated ruthenium(II) compounds show lower RF values than Cisplatin on ovarian carcinoma cell lines, ranging from 0.2 to 1.5 (Table 3). Whereas the IC50 values on the non-resistant cell lines are in most cases higher than the IC50 of the reference substance, no increase of IC50 values is observed for the resistant cell lines. Contrary, eight ruthenium complexes show lower IC50 values on SKOV3cis than Cisplatin and four compounds on A2780cis. Thus, it can be concluded that these compounds are able to bypass the Cisplatin resistance mechanism in these cell lines pointing to a different mechanism of action.
as §2

The test system of the next series is A549. Put plainly: MTT assay (CellTiter96), cytotoxic activity. The series is classed as cell-based. The settings on record: lung carcinoma cell line, 48 h incubation. How it is done:
as §3, §2

The next series relates to SKOV3. Briefly: MTT assay (CellTiter96), cytotoxic activity. Particulars: 48 h incubation. Format: cell-based. How it is done: as §3, §2
Another series deals with A2780. Briefly: MTT assay (CellTiter96), cytotoxic activity. Format: cell-based. Particulars: 48 h incubation. How it is done: as §3, §2
In another series the test system is SKOV3cis. Put plainly: MTT assay (CellTiter96), cytotoxic activity. The series is classed as cell-based. The settings on record: for IC50: Cisplatin resistant SKOV3, MTT assay, 48 h incubation; for RF SKOV3 (resistance factor): SKOV3cis vs SKOV3. How it is done: as §3, §2
A further series deals with histone γH2AX-foci. Briefly: γH2AX foci analysis (DNA damage). Format: cell-based. The settings on record: IC50 concentration, 24h incubation. From the text: ROS production may also lead to endoplasmatic reticulum stress-induced apoptosis. In general, many ruthenium(II) complexes with different ligands induce intracellular ROS [94, 95, 96, 97, 98, 99]. Moreover, the cytotoxic activity of Os(II) compounds can be inhibited by vitamin E co-treatment pointing to the contribution of ROS [88]. In addition to mitochondrial dysfunction, Ru(II) complexes may affect glycolysis or topoisomerase I/II, thus inducing necroptosis. Ru(II) compounds with modified pyrithione ligands were recently described to overcome platinum resistance in ovarian cancer cells by inducing cytostatic G1 arrest, TrxR inhibition, and cell membrane damage. […] Future studies may identify the specific target proteins enabling molecular docking studies and specific refinement of the organo-metal compound structure. Altogether, presented compounds may use some of these alternative modes of action as well, as we see efficient cell death but no cell cycle arrest induction by Ru3/Ru14. Furthermore, the ruthenium(II) core atom might be responsible for this effect because of the lack of anticancer behaviour of the ligand L14 (Supplementary Figure S8). To further confirm that Ru compounds use another mechanism of action, DNA damage analyses were conducted for Ru3 and Ru14 (Figure 8). […]

Series [2] concerns A2780 and SKOV3 cells and the resistant subcultures. Put plainly: Cell cycle distribution, PI staining and FACS. Format: cell-based. The settings on record: 48 h treatment, 24 h recovery. Here is the method: The reduced viability under treatment, as measured by the MTT assay, can be a result of cell cycle arrest and/or increased cell death. To further evaluate the anticancer properties of the ruthenium(II) complexes we measured cell cycle distribution and cell death rates after treatment with Ru3 or Ru14. After seeding and attaching, the cells were treated for 48 h with different concentrations of substances. For cell cycle distribution measurements, a recovery phase of 24 h was added after treatment, and cells were fixed and stained with PI for the DNA content. Arresting of cells in specific cell cycle phases gives them time to resolve the DNA damage (G1 arrest) or is an initial step to apoptosis if DNA damage is too severe (G2/M arrest).
as §1

For another series, the system named is Keratinocytes. Briefly: IC50 on non-cancerous cell cultures. The series is classed as cell-based. The settings on record: normal primary short-term cell culture.
The nature of series [3]: Stability determination via 1H NMR spectroscopy. The series is classed as physicochemical. Here is the method:
To investigate the behaviour of the ruthenium(II) complexes Ru1, Ru3, and Ru8 in solution, we analysed kinetic measurements via ^1H NMR spectroscopy (every 1 h, one spectra). NMR signals and behaviour of the ruthenium and osmium compounds is similar, but osmium(II) compounds show a slower ligand exchange mechanism and a higher stability in general. […] The same measurements were done also with dmso at room temperature. Similar changes in the spectra occur at room temperature and new species are detectable (exemplified for Ru1 in the Supplementary Figure S3). However, slower speciation processes in comparison to 37 °C measurements occur, which is exemplarily represented by the disappearance of the double-doublets of the cymene ligand after 29 h (rt, Supplementary Figure S3) vs. 5 h (37 °C, Supplementary Figure S2). As reported earlier, dmso molecules are able to bind to the ruthenium(II) center by losing the cymene ligand and changing the structure to an octahedral metal(II) coordination sphere. Thus, an explanation for the new species can be the binding of dmso molecules to the ruthenium(II) center after loss of the cymene ligand representing the new species in the ^1H NMR spectra. To support this hypothesis, the ruthenium(II) complexes were measured under same conditions (rt, 72 h) in CD2Cl2, and it was shown that the compounds are stable under these conditions in the other solvent (see Supplementary Figure S4).
NMR spectra were measured via NMR spectroscopy on Bruker Avance 400 MHz. Substances were solved in dmso-d6 or CD2Cl2 and measured directly at 37 °C or room temperature for 72 h. NS = 128 scans, t = 709 s/2891 s break, 72 measurements.

Another series has as its system MCF10A. Briefly: IC50 on non-cancerous cell cultures. Particulars: non-cancerous breast epithelial cell line. The series is classed as cell-based.
Another series relates to Fibroblasts. Briefly: IC50 on non-cancerous cell cultures. The series is classed as cell-based. Particulars: normal primary short-term cell culture.

What is called IC50 is the concentration needed to halve the response being measured. Higher therefore signals lower potency.

Regarding `CSC(=S)C=C([O][Ru][Cl])c1cccc(O)c1.Cc1ccc(C(C)C)cc1` [Ru3, [(η^6-p-cymene)Ru(1-(3-hydroxyphenyl)-3-(methylthio)-3-thioxo-prop-1-en-1-olate-O,S)Cl]], the “capacity to induce cell death in vitro” value with A2780 cells is given as “high capacity to induce cell death”. Further, the “mean IC50 value on Cisplatin resistant cell lines compared with Cisplatin” value in [1] is given as “lower”. Also, in the series with A2780cis, the “RF A2780 (resistance factor)” value was 0.9. The IC50 turned out to be 7.4 µM with A2780cis; 8 µM in the series with A549; 18.9 µM in the series with SKOV3; 8.7 µM in the series on A2780; 12.1 µM in the series with SKOV3cis. Further, the “RF SKOV3 (resistance factor)” value in the series with SKOV3cis was 0.6. Moreover, the γH2AX-foci induction result in the series with histone γH2AX-foci was “less γH2AX-foci as Cisplatin”. For the same molecule, the “effect on cell cycle distribution” value in series [2] is “no or only a minor effect on cell cycle distribution”.

In the case of “[(η^6-p-cymene)Os(1-(3-hydroxyphenyl)-3-(ethylthio)-3-thioxo-prop-1-en-1-olate-O,S)Cl] [Os3]”, the half-inhibitory concentration (IC50) with Keratinocytes was found to be 84.5 µM; in the series on A2780cis it was 0.4 µM; with A549, 0.7 µM; in the series on SKOV3, 1.1 µM; with A2780, 0.4 µM; in the series on SKOV3cis, 2.3 µM. The half-inhibitory concentration (IC50) with MCF10A was 21.3 µM; in the series with Fibroblasts, greater than 100 µM. The “stability determination using NMR spectroscopy” value in [3] (osmium(II) compounds) is “no structural changes”. Further, the “RF A2780 (resistance factor)” value with A2780cis was determined as 1. Besides, in the series on SKOV3cis, the “RF SKOV3 (resistance factor)” value is recorded as 2.1.

“[(n^6-p-cymene)Ru(1-phenyl-3-(methylthio)-3-thioxo-prop-1-en-1-olate-O,S)Cl] [Ru1]”: the “disappearance of the double-doublets of the cymene ligand” value in series [3] (dmso, rt) worked out at 29 h; in series [3] (dmso-d6, 37 °C) it was 5 h. Besides, the “loss of the methine proton signal” value in series [3] (dmso-d6, 37 °C) worked out at 7 h. For the same molecule, the “RF A2780 (resistance factor)” value in the series on A2780cis amounted to 0.75. Moreover, the half-inhibitory concentration (IC50) in the series on A2780cis is 9.6 µM; in the series with A549, 28.8 µM; in the series with SKOV3, 34.7 µM; in the series with A2780, 12.8 µM; in the series on SKOV3cis, 18.4 µM. The “RF SKOV3 (resistance factor)” value in the series with SKOV3cis is 0.5.

Consider “[(η^6-p-cymene)Ru(1-(4-ethoxyphenyl)-3-(methylthio)-3-thioxo-prop-1-en-1-olate-O,S)] [Ru15]”, for which the “mean IC50 value on Cisplatin resistant cell lines compared with Cisplatin” value in [1] is on record as “lower”. The “RF A2780 (resistance factor)” value in the series with A2780cis worked out at 0.8. Further, the IC50 came out at 4.4 µM with A2780cis; 16.5 µM in the series on A549; 7.4 µM in the series on SKOV3; 5.8 µM in the series on A2780; 3.7 µM with SKOV3cis. Besides, the “RF SKOV3 (resistance factor)” value in the series on SKOV3cis was 0.5.
